From patent publication US20240358693A1, “METHODS OF TREATING PAIN” (Aisa Pharma, Inc., priority 2023, published 2024)

System: participants with SSc-RP
Assay: Frequency of weekly RP attacks (all attacks; primary efficacy endpoint)
Type: in vivo, human
Conditions: for Weekly RP Attacks (All Attacks) Change from Baseline, Mean / Weekly RP Attacks (All Attacks) Change from Baseline, Median / Weekly RP Attacks (All Attacks) Percent Change from Baseline, Mean / Weekly RP Attacks (All Attacks) Percent Change from Baseline, Median / Weekly RP Attacks (All Attacks), Mean / Weekly RP Attacks (All Attacks), Median: Excluding Outliers, by Baseline RCS, ITT Part A; for Weekly RP Attacks Change from Baseline, Max / Weekly RP Attacks Change from Baseline, Mean (SD) / Weekly RP Attacks Change from Baseline, Median / Weekly RP Attacks Change from Baseline, Min / Weekly RP Attacks Change from Baseline, Q1 / Weekly RP Attacks Change from Baseline, Q3 / Weekly RP Attacks Percent Change from Baseline, Max / Weekly RP Attacks Percent Change from Baseline, Mean (SD) / Weekly RP Attacks Percent Change from Baseline, Median / Weekly RP Attacks Percent Change from Baseline, Min / Weekly RP Attacks Percent Change from Baseline, Q1 / Weekly RP Attacks Percent Change from Baseline, Q3 / Weekly RP Attacks, Max / Weekly RP Attacks, Mean (SD) / Weekly RP Attacks, Median / Weekly RP Attacks, Min / Weekly RP Attacks, Q1 / Weekly RP Attacks, Q3: all attacks, excluding outliers, tadalafil 5 mg daily
From the text: Percent change from baseline evaluation for frequency of weekly RP attacks were or will be used as the primary efficacy variable. The sponsor-developed participant-informed diary will be used to record data. Frequency of weekly RP attacks is defined as the total number of RP attacks divided by the number of days with available diary data within the last 7 days of each dosing period then multiplied by 7. Total number of RP attacks during the last 7 days of screening period divided by the number of days with available data then multiplied by 7 will be used as baseline for the analysis of all periods. The variable will be calculated as follows:
Percentage change={(weekly RP attacks for the last 7 days of each dosing period−Baseline weekly RP attacks)/Baseline weekly RP attacks}*100%.
Absolute change=weekly RP attacks for the last 7 days of each dosing period−Baseline weekly RP attacks
Percent change from baseline evaluation for frequency of weekly RP attacks was and will be the primary efficacy endpoint. Frequency of weekly RP attacks is defined as the total number of RP attacks divided by the number of days with available diary data within the last 7 days of each dosing period then multiplied by 7. Total number of RP attacks during the last 7 days of screening period divided by the number of days with available data then multiplied by 7 will be used as baseline for the analysis of all periods.
Percent change from baseline evaluation for frequency of weekly RP attacks were the primary efficacy endpoint. Data collected in the last 7 days of each dosing period were used for this analysis. Screening assessments were used as baseline for the analysis of all periods. No multiple comparison adjustment were used to control alpha for the multiple comparisons. Mixed effects model were used for analysis of the primary endpoint according to the crossover design. Other efficacy endpoints of continuous variables were analyzed using similar methodology. For nominal data, chi-square tests were applied. Generalized Estimating Equations method were used, as appropriate, for adjusting for potential confounding factors. In addition, the final analysis assessed whether in this study of severe Raynaud's disease participants, the minimally important difference, previously concluded of 14-15 points on the 100 point RCS scale had been achieved in the cilnidipine dose group. It also recorded the percentage of participants achieving a PASS (34 point difference from baseline on a 0-100 VAS) in each treatment group.

[1] = Cilnidipine 10 mg, n=1, first subgroup
[2] = Cilnidipine 20 mg (n=3), subgroup n = 2
[3] = Cilnidipine 20 mg, n=2, first subgroup
[4] = Pooled Cilnidipine 10 mg and Cilnidipine 10 mg + Tadalafil 5 mg, n=1, second subgroup
[5] = Pooled Cilnidipine 10 mg and Cilnidipine 10 mg + Tadalafil 5 mg, n=2, first subgroup
[6] = Pooled Cilnidipine 20 mg and Cilnidipine 20 mg + Tadalafil 5 mg, n=1, second subgroup
[7] = Pooled Cilnidipine 20 mg and Cilnidipine 20 mg + Tadalafil 5 mg, n=3, first subgroup
[8] = Pooled Cilnidipine (n = 7), subgroup n = 2
[9] = Pooled Cilnidipine, n=3, first subgroup
[10] = pooled cilnidipine 10 mg and 20 mg

COCCOC(=O)C1=C(C)NC(C)=C(C(=O)OC/C=C/c2ccccc2)C1c1cccc([N+](=O)[O-])c1 (stereo not drawn) [Cilnidipine, cilnidipine]
reduction in weekly frequency of typical Raynaud attacks (10 mg of cilnidipine (n=3 for both doses)): 28%
reduction in weekly frequency of typical Raynaud attacks (20 mg of cilnidipine (n=3 for both doses)): 46%
Weekly RP Attacks (All Attacks) Change from Baseline, Mean [1]: −9.00
Weekly RP Attacks (All Attacks) Change from Baseline, Median [1]: −9.00
Weekly RP Attacks (All Attacks) Percent Change from Baseline, Mean [1]: −28.13%
Weekly RP Attacks (All Attacks) Percent Change from Baseline, Median [1]: −28.13%
Weekly RP Attacks (All Attacks), Mean [1]: 23.00
Weekly RP Attacks (All Attacks), Median [1]: 23.00
Subgroup Baseline RCS, <3.5 baseline (Cilnidipine 20 mg (n=3), subgroup n = 1): <3.5 baseline −42%
Subgroup Baseline RCS, >3.5-7.5 baseline [2]: >3.5-7.5 baseline −43%
Subgroup attack frequency, <10 baseline [2]: <10 baseline −29%
Subgroup attack frequency, >10 baseline [2]: >10 baseline −50%
Weekly RP Attacks (All Attacks) Change from Baseline, Mean [3]: −6.67
Weekly RP Attacks (All Attacks) Change from Baseline, Median [3]: −6.67
Weekly RP Attacks (All Attacks) Percent Change from Baseline, Mean [3]: −45.71%
Weekly RP Attacks (All Attacks) Percent Change from Baseline, Median [3]: −45.71%
Weekly RP Attacks (All Attacks), Mean [3]: 8.00
Weekly RP Attacks (All Attacks), Median [3]: 8.00
Mean % reduction of weekly attacks from baseline (Cilnidipine (20 mg) (n = 3)): 43%
Mean weekly attacks at baseline (Cilnidipine (20 mg) (n = 3)): 12.7
Weekly attack frequency (Cilnidipine (20 mg) (n = 3)): −43%
Weekly attack frequency, If baseline RCS <3.5 (Cilnidipine (20 mg) (n = 3)): −42%
Weekly RP Attacks (All Attacks) Change from Baseline, Mean [4]: −5.00
Weekly RP Attacks (All Attacks) Change from Baseline, Median [4]: −5.00
Weekly RP Attacks (All Attacks) Percent Change from Baseline, Mean [4]: −45.45%
Weekly RP Attacks (All Attacks) Percent Change from Baseline, Median [4]: −45.45%
Weekly RP Attacks (All Attacks), Mean [4]: 6.00
Weekly RP Attacks (All Attacks), Median [4]: 6.00
Weekly RP Attacks (All Attacks) Change from Baseline, Mean [5]: −6.50
Weekly RP Attacks (All Attacks) Change from Baseline, Median [5]: −6.50
Weekly RP Attacks (All Attacks) Percent Change from Baseline, Mean [5]: −36.28%
Weekly RP Attacks (All Attacks) Percent Change from Baseline, Median [5]: −36.28%
Weekly RP Attacks (All Attacks), Mean [5]: 14.00
Weekly RP Attacks (All Attacks), Median [5]: 14.00
Weekly RP Attacks (All Attacks) Change from Baseline, Mean [6]: −1.83
Weekly RP Attacks (All Attacks) Change from Baseline, Median [6]: −1.83
Weekly RP Attacks (All Attacks) Percent Change from Baseline, Mean [6]: −14.29%
Weekly RP Attacks (All Attacks) Percent Change from Baseline, Median [6]: −14.29%
Weekly RP Attacks (All Attacks), Mean [6]: 11.00
Weekly RP Attacks (All Attacks), Median [6]: 11.00
Weekly RP Attacks (All Attacks) Change from Baseline, Mean [7]: −5.78
Weekly RP Attacks (All Attacks) Change from Baseline, Median [7]: −4.33
Weekly RP Attacks (All Attacks) Percent Change from Baseline, Mean [7]: −37.49%
Weekly RP Attacks (All Attacks) Percent Change from Baseline, Median [7]: −45.00%
Weekly RP Attacks (All Attacks), Mean [7]: 10.33
Weekly RP Attacks (All Attacks), Median [7]: 11.00
Weekly attack frequency (Pooled Cilnidipine (n = 7)): −41%
Weekly attack frequency, If baseline RCS <3.5 (Pooled Cilnidipine (n = 7)): −27%
Subgroup Baseline RCS, 3.5-7.5 baseline (Pooled Cilnidipine (n = 7), subgroup n = 1): 3.5-7.5 baseline −86%
Subgroup attack frequency, <10 baseline [8]: <10 baseline −55%
Subgroup attack frequency, >10 baseline [8]: >10 baseline −28%
Subgroup Baseline RCS, <3.5 baseline (Pooled Cilnidipine (n = 7), subgroup n = 3): <3.5 baseline −27%
Weekly RP Attacks (All Attacks) Change from Baseline, Mean [9]: −7.44
Weekly RP Attacks (All Attacks) Change from Baseline, Median [9]: −9.00
Weekly RP Attacks (All Attacks) Percent Change from Baseline, Mean [9]: −39.85%
Weekly RP Attacks (All Attacks) Percent Change from Baseline, Median [9]: −45.00%
Weekly RP Attacks (All Attacks), Mean [9]: 13.00
Weekly RP Attacks (All Attacks), Median [9]: 11.00
Weekly RP Attacks Change from Baseline, Max (cilnidipine 10 mg): −9.0, −9.0
Weekly RP Attacks Change from Baseline, Mean (SD) (cilnidipine 10 mg): −9.00
Weekly RP Attacks Change from Baseline, Median (cilnidipine 10 mg): −9.00
Weekly RP Attacks Change from Baseline, Min (cilnidipine 10 mg): −9.0, −9.0
Weekly RP Attacks Change from Baseline, Q1 (cilnidipine 10 mg): −9.00, −9.00
Weekly RP Attacks Change from Baseline, Q3 (cilnidipine 10 mg): −9.00, −9.00
Weekly RP Attacks Percent Change from Baseline, Max (cilnidipine 10 mg): −28.1, −28.1%
Weekly RP Attacks Percent Change from Baseline, Mean (SD) (cilnidipine 10 mg): −28.13%
Weekly RP Attacks Percent Change from Baseline, Median (cilnidipine 10 mg): −28.13%
Weekly RP Attacks Percent Change from Baseline, Min (cilnidipine 10 mg): −28.1, −28.1%
Weekly RP Attacks Percent Change from Baseline, Q1 (cilnidipine 10 mg): −28.13, −28.13%
Weekly RP Attacks Percent Change from Baseline, Q3 (cilnidipine 10 mg): −28.13, −28.13%
Weekly RP Attacks, Max (cilnidipine 10 mg): 23.0, 23.0
Weekly RP Attacks, Mean (SD) (cilnidipine 10 mg): 23.00
Weekly RP Attacks, Median (cilnidipine 10 mg): 23.00
Weekly RP Attacks, Min (cilnidipine 10 mg): 23.0, 23.0
Weekly RP Attacks, Q1 (cilnidipine 10 mg): 23.00, 23.00
Weekly RP Attacks, Q3 (cilnidipine 10 mg): 23.00, 23.00
Weekly RP Attacks Change from Baseline, Max (cilnidipine 20 mg): −4.3
Weekly RP Attacks Change from Baseline, Mean (SD) (cilnidipine 20 mg): −6.67 (3.300)
Weekly RP Attacks Change from Baseline, Median (cilnidipine 20 mg): −6.67
Weekly RP Attacks Change from Baseline, Min (cilnidipine 20 mg): −9.0
Weekly RP Attacks Change from Baseline, Q1 (cilnidipine 20 mg): −9.00
Weekly RP Attacks Change from Baseline, Q3 (cilnidipine 20 mg): −4.33
Weekly RP Attacks Percent Change from Baseline, Max (cilnidipine 20 mg): −45.0%
Weekly RP Attacks Percent Change from Baseline, Mean (SD) (cilnidipine 20 mg): −45.71 (1.010) Percent
Weekly RP Attacks Percent Change from Baseline, Median (cilnidipine 20 mg): −45.71%
Weekly RP Attacks Percent Change from Baseline, Min (cilnidipine 20 mg): −46.4%
Weekly RP Attacks Percent Change from Baseline, Q1 (cilnidipine 20 mg): −46.43%
Weekly RP Attacks Percent Change from Baseline, Q3 (cilnidipine 20 mg): −45.00%
Weekly RP Attacks, Max (cilnidipine 20 mg): 11.0
Weekly RP Attacks, Mean (SD) (cilnidipine 20 mg): 8.00 (4.243)
Weekly RP Attacks, Median (cilnidipine 20 mg): 8.00
Weekly RP Attacks, Min (cilnidipine 20 mg): 5.0
Weekly RP Attacks, Q1 (cilnidipine 20 mg): 5.00
Weekly RP Attacks, Q3 (cilnidipine 20 mg): 11.00
Weekly RP Attacks Change from Baseline, Max [10]: −4.3
Weekly RP Attacks Change from Baseline, Mean (SD) [10]: −7.44 (2.694)
Weekly RP Attacks Change from Baseline, Median [10]: −9.00
Weekly RP Attacks Change from Baseline, Min [10]: −9.0
Weekly RP Attacks Change from Baseline, Q1 [10]: −9.00
Weekly RP Attacks Change from Baseline, Q3 [10]: −4.33
Weekly RP Attacks Percent Change from Baseline, Max [10]: −28.1%
Weekly RP Attacks Percent Change from Baseline, Mean (SD) [10]: −39.85 (10.180) Percent
Weekly RP Attacks Percent Change from Baseline, Median [10]: −45.00%
Weekly RP Attacks Percent Change from Baseline, Min [10]: −46.4%
Weekly RP Attacks Percent Change from Baseline, Q1 [10]: −46.43%
Weekly RP Attacks Percent Change from Baseline, Q3 [10]: −28.13%
Weekly RP Attacks, Max [10]: 23.0
Weekly RP Attacks, Mean (SD) [10]: 13.00 (9.165)
Weekly RP Attacks, Median [10]: 11.00
Weekly RP Attacks, Min [10]: 5.0
Weekly RP Attacks, Q1 [10]: 5.00
